This note sets out measurements from PMC6934184, “Selective DNA-PKcs inhibition extends the therapeutic index of localized radiotherapy and chemotherapy” (The Journal of Clinical Investigation, 2019).

This experiment relates to FLT3 ITD. Put plainly: SelectScreen LanthaScreen. In kind it is binding. Particulars: 1 µM. An outline of the steps:
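Percent values come from Thermo SelectScreen profiling of NU5455, combining activity and binding assays. CSF1R was run in Z'LYTE format at Km app ATP, and CAMK1 in Adapta format with ATP listed at 10.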
(TR-FRET usually uses a lanthanide donor and a delayed reading to cut background.)

For the compound `CN(C(=O)CN1CCOCC1)c1ccc2sc3c(-c4cccc5c(=O)cc(N6CC7CCC(C6)O7)oc45)cccc3c2c1` [NU5455], the “% displacement” value is reported as -11.6%.
